PubChem BioAssay AID248 (DTP/NCI, 2004)
“And” between values parts separate entries of the source, which are not always exact repeats. Equal entries are not always repeated. Inconclusive results and toxic doses are left out. Rule as the data show it: active = T/C of 150% or more; inactive = T/C below 125%.

System: L1210 leukemia ip in BDF1 mice, survival T/C
Assay: NCI In Vivo Anticancer Drug Screen. Data for tumor model L1210 Leukemia (intraperitoneal) in B6D2F1 (BDF1) mice
Settings: endpoint: mean survival time, higher = longer survival
Method in brief: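 Tumor cells were implanted, animals were treated, and survival was followed. The result divides the treated measurement by the vehicle-control measurement.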

[1] = dose: 50.0 mg/kg/injection, schedule: Q01DX009 (ip), vehicle: carboxymethylcellulose (CMC)
[2] = dose: 100.0 mg/kg/injection, schedule: Q01DX001 (ip), vehicle: carboxymethylcellulose (CMC)
[3] = dose: 200.0 mg/kg/injection, schedule: Q01DX001 (ip), vehicle: carboxymethylcellulose (CMC)
[4] = dose: 100.0 mg/kg/injection, schedule: Q01DX009 (ip), vehicle: Klucel (hydroxypropylcellulose) (HPC)
[5] = dose: 200.0 mg/kg/injection, schedule: Q01DX009 (ip), vehicle: Klucel (hydroxypropylcellulose) (HPC)
[6] = dose: 100.0 mg/kg/injection, schedule: Q04DX003 (ip), vehicle: Klucel (hydroxypropylcellulose) (HPC)
[7] = dose: 200.0 mg/kg/injection, schedule: Q04DX003 (ip), vehicle: Klucel (hydroxypropylcellulose) (HPC)
[8] = dose: 100.0 mg/kg/injection, schedule: Q04DX003 (ip), vehicle: saline
[9] = dose: 200.0 mg/kg/injection, schedule: Q04DX003 (ip), vehicle: saline

Measured: T/C

CC1(c2ccc(C(O)c3ccccc3)s2)OCCO1 (centres undefined)
inactive: dose: 33.0 mg/kg/injection, schedule: Q01DX009 (ip), vehicle: carboxymethylcellulose (CMC) 103 % of control | dose: 37.5 mg/kg/injection, schedule: Q04DX003 (ip), vehicle: Klucel (hydroxypropylcellulose) (HPC) 109 % of control | [1] 98 % of control | dose: 75.0 mg/kg/injection, schedule: Q01DX001 (ip), vehicle: carboxymethylcellulose (CMC) 109 % of control | dose: 75.0 mg/kg/injection, schedule: Q01DX009 (ip), vehicle: carboxymethylcellulose (CMC) 103 % of control | dose: 75.0 mg/kg/injection, schedule: Q04DX003 (ip), vehicle: Klucel (hydroxypropylcellulose) (HPC) 109 % of control | dose: 100.0 mg/kg/injection, schedule: Q01DX001 (ip), vehicle: Klucel (hydroxypropylcellulose) (HPC) 103 % of control | dose: 150.0 mg/kg/injection, schedule: Q01DX001 (ip), vehicle: Klucel (hydroxypropylcellulose) (HPC) 97 % of control | dose: 150.0 mg/kg/injection, schedule: Q01DX009 (ip), vehicle: carboxymethylcellulose (CMC) 113 % of control | dose: 225.0 mg/kg/injection, schedule: Q01DX001 (ip), vehicle: Klucel (hydroxypropylcellulose) (HPC) 109 % of control

Cc1cc(=O)cc(S)[nH]1
inactive: [2] 94 % of control | [3] 100 % of control | dose: 400.0 mg/kg/injection, schedule: Q01DX001 (ip), vehicle: carboxymethylcellulose (CMC) 91 % of control

Clc1ccc(/C=N/N=C(N/N=C/c2ccc(Cl)cc2Cl)N/N=C/c2ccc(Cl)cc2Cl)c(Cl)c1
inactive: dose: 15.0 mg/kg/injection, schedule: Q01DX Z (ip), vehicle: carboxymethylcellulose (CMC) 88 % of control | dose: 30.0 mg/kg/injection, schedule: Q01DX Z (ip), vehicle: carboxymethylcellulose (CMC) 93 % of control | dose: 60.0 mg/kg/injection, schedule: Q01DX Z (ip), vehicle: carboxymethylcellulose (CMC) 95 % of control and 88 % of control | dose: 120.0 mg/kg/injection, schedule: Q01DX Z (ip), vehicle: carboxymethylcellulose (CMC) 87 % of control and 88 % of control | dose: 240.0 mg/kg/injection, schedule: Q01DX Z (ip), vehicle: carboxymethylcellulose (CMC) 93 % of control | dose: 240.0 mg/kg/injection, schedule: Q01DX Z (oral), vehicle: carboxymethylcellulose (CMC) 102 % of control | dose: 480.0 mg/kg/injection, schedule: Q01DX Z (ip), vehicle: carboxymethylcellulose (CMC) 87 % of control | dose: 480.0 mg/kg/injection, schedule: Q01DX Z (oral), vehicle: carboxymethylcellulose (CMC) 104 % of control | dose: 960.0 mg/kg/injection, schedule: Q01DX Z (oral), vehicle: carboxymethylcellulose (CMC) 105 % of control | dose: 1920.0 mg/kg/injection, schedule: Q01DX Z (oral), vehicle: carboxymethylcellulose (CMC) 102 % of control

CCCCOC(=O)c1ccc(OC(=O)NC)cc1
inactive: dose: 100.0 mg/kg/injection, schedule: Q01DX009 (ip), vehicle: saline with Tween-80 107 % of control | dose: 200.0 mg/kg/injection, schedule: Q01DX009 (ip), vehicle: saline with Tween-80 101 % of control | dose: 400.0 mg/kg/injection, schedule: Q01DX009 (ip), vehicle: saline with Tween-80 112 % of control

CC(C)=CCNc1nc(=O)[nH]c2nc[nH]c12
inactive: dose: 75.0 mg/kg/injection, schedule: Q01DX001 (ip), vehicle: saline 92 % of control | dose: 150.0 mg/kg/injection, schedule: Q01DX001 (ip), vehicle: saline 88 % of control | dose: 300.0 mg/kg/injection, schedule: Q01DX001 (ip), vehicle: saline 88 % of control

Cc1nc2c(O)cccc2cc1CO
inactive: [4] 95 % of control | [5] 93 % of control

BrC1CCCCCC(Br)C12OCCO2 (centres undefined)
inactive: [4] 95 % of control | [6] 102 % of control | [5] 98 % of control | [7] 104 % of control | dose: 400.0 mg/kg/injection, schedule: Q01DX009 (ip), vehicle: Klucel (hydroxypropylcellulose) (HPC) 101 % of control | dose: 400.0 mg/kg/injection, schedule: Q04DX003 (ip), vehicle: Klucel (hydroxypropylcellulose) (HPC) 100 % of control

BrC#CC1CCCCC1
inactive: [8] 100 % of control | [9] 100 % of control

C=CCSc1nc2c(N)ncnc2n1C1OC(CO)C(O)C1O (centres undefined)
inactive: dose: 100.0 mg/kg/injection, schedule: Q01DX005 (ip), vehicle: saline 103 % of control | dose: 200.0 mg/kg/injection, schedule: Q01DX005 (ip), vehicle: saline 98 % of control

Cc1ccc(NC(=O)c2ccc(C)c(NC(=O)C(F)(F)F)c2)c(C)c1
inactive: dose: 50.0 mg/kg/injection, schedule: Q04DX003 (ip), vehicle: Klucel (hydroxypropylcellulose) (HPC) 97 % of control | [6] 100 % of control | [7] 95 % of control

CCOC(=O)/C(C(N)=O)=C(/C)C=C(C)C
inactive: dose: 10.0 mg/kg/injection, schedule: Q01DX001 (ip), vehicle: acetone 101 % of control | dose: 20.0 mg/kg/injection, schedule: Q01DX001 (ip), vehicle: acetone 100 % of control

CS(=O)(=O)N(CC(=O)O)Cc1ccc(Cl)c(Cl)c1
inactive: dose: 100.0 mg/kg/injection, schedule: Q01DX009 (ip), vehicle: other 100 % of control | dose: 100.0 mg/kg/injection, schedule: Q04DX003 (ip), vehicle: other 97 % of control | dose: 200.0 mg/kg/injection, schedule: Q01DX009 (ip), vehicle: other 104 % of control | dose: 200.0 mg/kg/injection, schedule: Q04DX003 (ip), vehicle: other 97 % of control | dose: 400.0 mg/kg/injection, schedule: Q01DX009 (ip), vehicle: other 96 % of control | dose: 400.0 mg/kg/injection, schedule: Q04DX003 (ip), vehicle: other 95 % of control

CCCCC(=O)N1CCCCC1C (centres undefined)
inactive: dose: 50.0 mg/kg/injection, schedule: Q01DX001 (ip), vehicle: carboxymethylcellulose (CMC) 102 % of control | [1] 94 % of control and 100 % of control | dose: 50.0 mg/kg/injection, schedule: Q04DX003 (ip), vehicle: carboxymethylcellulose (CMC) 96 % of control | [2] 101 % of control | dose: 100.0 mg/kg/injection, schedule: Q01DX009 (ip), vehicle: carboxymethylcellulose (CMC) 97 % of control and 98 % of control | dose: 100.0 mg/kg/injection, schedule: Q04DX002 (ip), vehicle: carboxymethylcellulose (CMC) 105 % of control | dose: 100.0 mg/kg/injection, schedule: Q04DX003 (ip), vehicle: carboxymethylcellulose (CMC) 100 % of control | [3] 101 % of control | dose: 200.0 mg/kg/injection, schedule: Q01DX009 (ip), vehicle: carboxymethylcellulose (CMC) 96 % of control and 97 % of control | dose: 200.0 mg/kg/injection, schedule: Q04DX002 (ip), vehicle: carboxymethylcellulose (CMC) 98 % of control | dose: 200.0 mg/kg/injection, schedule: Q04DX003 (ip), vehicle: carboxymethylcellulose (CMC) 105 % of control | dose: 400.0 mg/kg/injection, schedule: Q04DX002 (ip), vehicle: carboxymethylcellulose (CMC) 102 % of control

[Cl][Pt+2][Cl].[NH-]c1ccc([N+](=O)[O-])cc1.[NH-]c1ccc([N+](=O)[O-])cc1
inactive: [8] 102 % of control | [9] 113 % of control

CCN(CC)C(=O)OC/C=C\CC(Cl)(Cl)Cl
inactive: dose: 50.0 mg/kg/injection, schedule: Q01DX009 (ip), vehicle: saline sonified 97 % of control | dose: 100.0 mg/kg/injection, schedule: Q01DX009 (ip), vehicle: saline sonified 111 % of control | dose: 100.0 mg/kg/injection, schedule: Q04DX003 (ip), vehicle: saline sonified 106 % of control | dose: 200.0 mg/kg/injection, schedule: Q01DX009 (ip), vehicle: saline sonified 94 % of control | dose: 200.0 mg/kg/injection, schedule: Q04DX003 (ip), vehicle: saline sonified 106 % of control | dose: 400.0 mg/kg/injection, schedule: Q04DX003 (ip), vehicle: saline sonified 106 % of control

C#CC(OC(=O)N(C)C)(c1ccccc1)c1ccc(F)cc1 (centres undefined)
inactive: dose: 5.0 mg/kg/injection, schedule: Q01DX001 (ip), vehicle: saline 108 % of control | dose: 10.0 mg/kg/injection, schedule: Q01DX001 (ip), vehicle: saline 105 % of control | dose: 20.0 mg/kg/injection, schedule: Q01DX001 (ip), vehicle: saline 109 % of control | dose: 40.0 mg/kg/injection, schedule: Q01DX001 (ip), vehicle: saline 117 % of control

CC12CCC=CC1=CC(=O)CC2 (centres undefined)
inactive: dose: 75.0 mg/kg/injection, schedule: Q01DX001 (ip), vehicle: other 98 % of control | dose: 150.0 mg/kg/injection, schedule: Q01DX001 (ip), vehicle: other 106 % of control | dose: 300.0 mg/kg/injection, schedule: Q01DX001 (ip), vehicle: other 103 % of control
